# Experimental data from patent US20230092890A1, “1, 3, 4-Oxadiazole derivative compounds as histone deacetylase 6 inhibitor, and the pharmaceutical composition comprising the same” (Chong Kun Dang Pharmaceutical Corp., priority 2019, published 2023).
# What was measured:
# HDAC6 human recombinant = molecular target: T1, HDAC6 human recombinant (Homo sapiens, UniProt Q9UBN7); test: HDAC enzyme activity inhibition (in vitro), HDAC6 assay; assay type: biochemical; details: samples at 0.1, 1, 10, 100 and 1000 nM; 37° C. 60 minutes; fluorescence Ex 390, Em 460; read-out: HDAC6 IC50
# T1 construct: purchased Calbiochem 382180
# T1 sequence (Q9UBN7 1-1215): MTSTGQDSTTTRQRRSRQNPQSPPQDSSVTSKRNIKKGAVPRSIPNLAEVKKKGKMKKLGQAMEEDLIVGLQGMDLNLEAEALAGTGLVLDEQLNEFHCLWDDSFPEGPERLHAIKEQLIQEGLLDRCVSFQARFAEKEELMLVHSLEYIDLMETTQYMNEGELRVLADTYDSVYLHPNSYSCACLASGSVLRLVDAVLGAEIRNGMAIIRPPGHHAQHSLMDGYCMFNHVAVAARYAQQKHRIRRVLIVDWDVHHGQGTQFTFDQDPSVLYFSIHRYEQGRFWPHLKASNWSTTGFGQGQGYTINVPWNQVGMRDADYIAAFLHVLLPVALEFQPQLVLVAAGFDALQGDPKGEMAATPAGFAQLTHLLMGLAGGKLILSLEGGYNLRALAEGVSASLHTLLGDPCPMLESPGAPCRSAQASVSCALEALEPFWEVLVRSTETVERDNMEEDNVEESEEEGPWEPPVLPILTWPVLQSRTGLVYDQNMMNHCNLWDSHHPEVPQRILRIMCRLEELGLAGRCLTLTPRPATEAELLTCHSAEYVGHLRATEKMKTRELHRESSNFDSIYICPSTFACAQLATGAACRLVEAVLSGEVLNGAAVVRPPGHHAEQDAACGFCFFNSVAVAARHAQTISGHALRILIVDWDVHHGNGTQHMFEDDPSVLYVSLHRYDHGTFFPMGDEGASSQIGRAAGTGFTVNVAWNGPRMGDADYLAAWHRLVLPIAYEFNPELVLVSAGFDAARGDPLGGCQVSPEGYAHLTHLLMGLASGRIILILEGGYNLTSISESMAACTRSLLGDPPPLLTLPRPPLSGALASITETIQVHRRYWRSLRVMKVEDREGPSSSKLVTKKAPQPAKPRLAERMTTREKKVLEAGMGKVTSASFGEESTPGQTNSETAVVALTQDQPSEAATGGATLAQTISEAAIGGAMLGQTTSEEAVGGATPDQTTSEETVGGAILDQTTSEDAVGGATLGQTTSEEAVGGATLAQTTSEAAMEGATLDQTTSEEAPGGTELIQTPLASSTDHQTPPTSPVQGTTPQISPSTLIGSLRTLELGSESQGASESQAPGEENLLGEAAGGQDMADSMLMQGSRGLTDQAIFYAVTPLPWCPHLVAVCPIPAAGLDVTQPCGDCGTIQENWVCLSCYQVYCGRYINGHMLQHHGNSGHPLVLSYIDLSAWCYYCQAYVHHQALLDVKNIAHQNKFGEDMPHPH
# How it was run: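 HDAC6 human recombinant enzyme with fluorimetric substrate; […]. Reaction 60 min at 37° C, then developer 30 min at 37° C; fluorescence read at Ex 390/Em 460.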
# HDAC1 = molecular target: T2, HDAC1 (Homo sapiens, UniProt Q13547); test: HDAC enzyme activity inhibition (in vitro), HDAC1 Fluorimetric Drug Discovery Assay Kit; assay type: biochemical; details: samples at 100, 1000 and 10000 nM; 37° C. 60 minutes; fluorescence Ex 390, Em 460; read-out: HDAC1 IC50
# T2 construct: purchased Enzolifesciences BML-AK511
# How it was run: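 HDAC1 was tested at 100, 1000 and 10000 nM and recombinant human HDAC6 at 0.1, 1, 10, 100 and 1000 nM. Enzyme reactions ran 60 min at 37° C, then developer was added for 30 min at 37° C, and fluorescence (Ex 390, Em 460) was read.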
# T2 sequence (Q13547 whole entry): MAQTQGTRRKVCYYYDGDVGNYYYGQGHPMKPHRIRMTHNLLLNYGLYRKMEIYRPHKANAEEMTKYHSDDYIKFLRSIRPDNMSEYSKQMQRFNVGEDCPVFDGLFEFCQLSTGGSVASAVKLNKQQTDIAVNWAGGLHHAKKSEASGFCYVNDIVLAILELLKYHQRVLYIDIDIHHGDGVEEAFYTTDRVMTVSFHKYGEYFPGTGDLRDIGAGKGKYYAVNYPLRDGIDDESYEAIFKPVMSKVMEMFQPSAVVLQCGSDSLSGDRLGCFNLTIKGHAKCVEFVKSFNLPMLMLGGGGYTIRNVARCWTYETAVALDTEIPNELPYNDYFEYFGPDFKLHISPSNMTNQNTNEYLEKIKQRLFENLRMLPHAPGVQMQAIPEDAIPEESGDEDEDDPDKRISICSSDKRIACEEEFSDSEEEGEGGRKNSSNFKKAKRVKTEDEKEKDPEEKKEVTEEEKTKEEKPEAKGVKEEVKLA
Compound,IC50 (HDAC6 human recombinant) [nM],IC50 (HDAC1) [nM]
"Cn1c(=O)n(Cc2ccc(-c3nnc(C(F)F)o3)cn2)c2cc(F)c(-c3cccc(F)c3)cc21 [Compound 166, 1-((5-(5-(difluoromethyl)-1,3,4-oxadiazole-2-yl)pyridine-2-yl)methyl)-6-fluoro-5-(3-fluorophenyl)-3-methyl-1,3-dihydro-2H-benzo[d]imidazole-2-one]",34,> 10000
"Cn1c(=O)n(Cc2ccc(-c3nnc(C(F)F)o3)cn2)c2cc(F)c(-c3ccc(C(F)(F)F)cc3)cc21 [Compound 167, 1-((5-(5-(difluoromethyl)-1,3,4-oxadiazole-2-yl)pyridine-2-yl)methyl)-6-fluoro-3-methy 1-5-(4-(trifluoromethyl)phenyl)-1,3-dihydro-2H-benzo[d]imidazole-2-one]",138,> 10000
"Cn1c(=O)n(Cc2ccc(-c3nnc(C(F)F)o3)cn2)c2cc(F)c(-c3ccoc3)cc21 [Compound 168, 1-((5-(5-(difluoromethyl)-1,3,4-oxadiazole-2-yl)pyridine-2-yl)methyl)-6-fluoro-5-(furan-3-yl)-3-methyl-1,3-dihydro-2H-benzo[d]imidazole-2-one]",40,> 10000
"Cn1c(=O)n(Cc2ccc(-c3nnc(C(F)F)o3)cc2F)c2cc(F)c(-c3cccnc3)cc21 [Compound 169, 1-(4-(5-(difluoromethyl)-1,3,4-oxadiazole-2-yl)-2-fluorobenzyl)-6-fluoro-3-methyl-5-(pyridine-3-yl)-1,3-dihydro-2H-benzo[d]imidazole-2-one]",21,> 10000
"Cc1ccc(-c2cc3c(cc2F)n(Cc2ccc(-c4nnc(C(F)F)o4)cc2F)c(=O)n3C)o1 [Compound 170, 1-(4-(5-(difluoromethyl)-1,3,4-oxadiazole-2-yl)-2-fluorobenzyl)-6-fluoro-3-methyl-5-(5-methylfuran-2-yl)-1,3-dihydro-2H-benzo[d]imidazole-2-one]",211,> 10000
"CC(=O)N1CCC(n2c(=O)n(Cc3ccc(-c4nnc(C(F)F)o4)cn3)c3c(F)cccc32)CC1 [Compound 171, 1-(1-acetylpiperidine-4-yl)-3-((5-(5-(difluoromethyl)-1,3,4-oxadiazole-2-yl)pyridine-2-yl)methyl)-4-fluoro-1,3-dihydro-2H-benzo[d]imidazole-2-one]",40,> 10000

# Now from value to molecule:
IC50 (HDAC6 human recombinant) [nM],IC50 (HDAC1) [nM],Compound
34,> 10000,"CC(=O)N1CCC(n2c(=O)n(Cc3ccc(-c4nnc(C(F)F)o4)cc3)c3cc(F)ccc32)CC1 [Compound 172, 1-(1-acetylpiperidine-4-yl)-3-(4-(5-(difluoromethyl)-1,3,4-oxadiazole-2-yl)benzyl)-5-fluoro-1,3-dihydro-2H-benzo[d]imidazole-2-one]"
31,> 10000,"CC(=O)N1CCC(n2c(=O)n(Cc3ccc(-c4nnc(C(F)F)o4)cn3)c3cc(F)c(F)cc32)CC1 [Compound 173, 1-(1-acetylpiperidine-4-yl)-3-((5-(5-(difluoromethyl)-1,3,4-oxadiazole-2-yl)pyridine-2-yl)methyl)-5,6-difluoro-1,3-dihydro-2H-benzo[d]imidazole-2-one]"
50,> 10000,"CC(=O)N1CCC(n2c(=O)n(Cc3ccc(-c4nnc(C(F)F)o4)cc3F)c3cc(F)c(F)cc32)CC1 [Compound 174, 1-(1-acetylpiperidine-4-yl)-3-(4-(5-(difluoromethyl)-1,3,4-oxadiazole-2-yl)-2-fluorobenzyl)-5,6-difluoro-1,3-dihydro-2H-benzo[d]imidazole-2-one]"
50,> 10000,"CC(=O)N1CCC(n2c(=O)n(Cc3ccc(-c4nnc(C(F)F)o4)cc3)c3cc(F)c(F)cc32)CC1 [Compound 175, 1-(1-acetylpiperidine-4-yl)-3-(4-(5-(difluoromethyl)-1,3,4-oxadiazole-2-yl)benzyl)-5,6-difluoro-1,3-dihydro-2H-benzo[d]imidazole-2-one]"
